From US6503881B2 (priority 1996, dated 2003)
Converted amounts (≈) assume the structure as drawn. Read-outs that look alike come from different tables or passages of the source.

Tested on: bacteria
Details: for MIC, Peptide: unmodified parent peptide
[1] = A. calcoaceticus AC002, agarose dilution
[2] = E. cloacae ECL007, agarose dilution
[3] = E. faecalis EFS001, agarose dilution
[4] = E. faecalis EFS008, agarose dilution
[5] = K. pneumoniae KP001, agarose dilution
[6] = P. aeruginosa PA004, agarose dilution
[7] = S. aureus SA014, agarose dilution
[8] = S. aureus SA093, agarose dilution
[9] = S. epidermidis SE010, agarose dilution
[10] = S. maltophilia SMA002, agarose dilution
[11] = S. marcescens SMS003, agarose dilution

CC[C@H](C)[C@H](NC(=O)[C@H](CC(C)C)NC(=O)[C@H](C)NC(=O)[C@@H]1CCCN1C(=O)[C@H](CC(C)C)NC(=O)CNC(=O)[C@@H](NC(=O)[C@@H](NC(=O)[C@H](CC(C)C)NC(=O)[C@@H](NC(=O)[C@H](CCCCN)NC(=O)[C@H](CCCCN)NC(=O)[C@@H](NC(=O)[C@H](C)NC(=O)[C@@H](NC(=O)[C@@H](NC(=O)[C@H](CC(C)C)NC(=O)[C@H](CCCCN)NC(=O)[C@H](CCCCN)NC(=O)[C@@H](NC(=O)[C@H](Cc1ccccc1)NC(=O)[C@H](CO)NC(=O)[C@H](CCCCN)NC(=O)[C@H](Cc1c[nH]c2ccccc12)NC(=O)[C@@H](N)CCCCN)[C@@H](C)CC)[C@@H](C)O)[C@@H](C)O)C(C)C)C(C)C)[C@@H](C)O)[C@@H](C)O)C(=O)N[C@@H](CO)C(=O)O [MBI29]
MIC, Peptide [1]: 1 µg/mL (≈ 0.348 µM) | MIC, Peptide [2]: >64 µg/mL | MIC, Peptide (E. coli EC0005, agarose dilution): 4 µg/mL (≈ 1.39 µM) | MIC, Peptide [3]: 0.5 µg/mL (≈ 0.174 µM) | MIC, Peptide [4]: 0.5 µg/mL (≈ 0.174 µM) | MIC, Peptide [5]: 2 µg/mL (≈ 0.696 µM) | MIC, Peptide [6]: 16 µg/mL (≈ 5.57 µM) | MIC, Peptide [7]: 1 µg/mL (≈ 0.348 µM) | MIC, Peptide [8]: 0.5 µg/mL (≈ 0.174 µM) | MIC, Peptide [9]: 4 µg/mL (≈ 1.39 µM) | MIC, Peptide [10]: 2 µg/mL (≈ 0.696 µM) | MIC, Peptide [11]: >128 µg/mL

I L K K F P F W P W R R K [MBI 11A7CN]
MIC [1]: 4 µg/mL | MIC [2]: >128 µg/mL | MIC (E. coli ECO005, agarose dilution): 8 µg/mL | MIC [3]: 2 µg/mL | MIC (E. faecalis EFS002): 16 µg/mL | MIC [4]: 4 µg/mL | MIC (E. faecium EFM003): 2 µg/mL | MIC [5]: 8 µg/mL | MIC [6]: >128 µg/mL | MIC (S. aureus SA009): 2 µg/mL | MIC [7]: 4 µg/mL | MIC [8]: 1 µg/mL | MIC [9]: 4 µg/mL | MIC [10]: 64 µg/mL | MIC [11]: >28 µg/mL

I L K K F P W F P W R R K [MBI 11A6CN]
MIC (A. calcoaceticus AC002): 2 µg/mL | MIC (E. cloacae ECL007): >128 µg/mL | MIC (E. coli ECO005): 16 µg/mL | MIC (E. faecalis EFS001): 1 µg/mL | MIC (E. faecalis EFS004): 64 µg/mL | MIC (E. faecalis EFS008): 8 µg/mL | MIC (E. faecium EFM003): 2 µg/mL | MIC (K. pneumoniae KP001): 32 µg/mL | MIC (P. aeruginosa PA004): >128 µg/mL | MIC (S. aureus SA014): 4 µg/mL | MIC (S. aureus SA016): 2 µg/mL

I L K K I P I I P I R R K [MBI 11A2CN]
MIC (A. calcoaceticus AC001): >128 µg/mL | MIC (E. cloacae ECL007): >128 µg/mL | MIC (E. coli ECO003): >128 µg/mL | MIC (E. faecalis EFS002): >128 µg/mL | MIC (E. faecium EFM003): 16 µg/mL | MIC (K. pneumoniae KP002): >128 µg/mL | MIC (P. aeruginosa PA004): >128 µg/mL | MIC (S. aureus SA004): 8 µg/mL | MIC (S. maltophilia SMA001): >128 µg/mL | MIC (S. marcescens SMS003): >128 µg/mL

I L K K P W W P W R R K [MBI 11G3CN]
MIC (E. cloacae ECL007): >128 µg/mL | MIC (E. coli ECO003): 64 µg/mL | MIC (E. faecalis EFS002): 64 µg/mL | MIC (E. faecium EFM002): 32 µg/mL | MIC (K. pneumoniae KP001): >128 µg/mL | MIC (P. aeruginosa PA003): >128 µg/mL | MIC (S. aureus SA009): 8 µg/mL | MIC (S. maltophilia SMA001): >128 µg/mL | MIC (S. marcescens SMS004): >128 µg/mL

I L K K W P W P W R R K [MBI 11A4CN]
MIC (A. calcoaceticus AC002): 8 µg/mL | MIC (E. cloacae ECL007): >128 µg/mL | MIC (E. coli ECO003): 32 µg/mL | MIC (E. faecalis EFS002): 64 µg/mL | MIC (E. faecium EFM001): 32 µg/mL | MIC (K. pneumoniae KP001): >128 µg/mL | MIC (P. aeruginosa PA004): >128 µg/mL | MIC (S. aureus SA005): 2 µg/mL | MIC (S. epidermidis SE002): 8 µg/mL | MIC (S. maltophilia SMA002): >128 µg/mL | MIC (S. marcescens SMS004): >128 µg/mL

I L K K W P W W A W R R K [MBI 11C4CN]
MIC (A. calcoaceticus AC002): 4 µg/mL | MIC (E. cloacae ECL007): >128 µg/mL | MIC (E. coli ECO005): 32 µg/mL | MIC (E. faecalis EFS002): 32 µg/mL | MIC (E. faecium EFM003): 2 µg/mL | MIC (K. pneumoniae KP001): >128 µg/mL | MIC (P. aeruginosa PA005): >128 µg/mL | MIC (S. aureus SA009): 4 µg/mL | MIC (S. epidermidis SE002): 4 µg/mL | MIC (S. maltophilia SMA002): 64 µg/mL | MIC (S. marcescens SMS004): >128 µg/mL

I L K K W P W W P R R K [MBI 11G6ACN]
MIC (A. calcoaceticus AC002): 4 µg/mL | MIC (E. coli ECO005): 64 µg/mL | MIC (E. faecalis EFS008): >128 µg/mL | MIC (S. aureus SA014): 64 µg/mL | MIC (S. epidermidis SE010): 32 µg/mL | MIC (S. maltophilia SMA002): >128 µg/mL
